Like-named read-outs stand apart in the source and are kept apart here.
What was measured:
[1] = system: patients with advanced, refractory, solid tumours; test: First-in-human phase 1 study: safety, tolerability, DLT, MTD, RP2D; format: in vivo; settings: for DLT events in words: cycle 1
Experimental: This multicentre study (six centres) consisted of a dose escalation part with a 3 + 3 design to explore safety and tolerability. Patients were enrolled into predefined dose levels (DLs; 70, 150, 200, 250, 300 mg BID) utilising a 4 days on/3 days off schedule 3 out of 4 weeks (intermittent schedule). The rationale for this intermittent schedule was based on pre-clinical data showing a more favourable toxicity profile, compared to continuous dosing regimens while maintaining antitumour activity. In addition to the 4 days on/3 days off, 3 out of 4 weeks schedule, a continuous dosing (200 mg BID) schedule with the same weekly schedule (4 days on/3 days off) administered 4 out of 4 weeks, was explored in the escalation phase. A minimum of 3 patients were to be treated at each DL, and at least 6 patients were planned to be enrolled at the MTD level. The MTD was defined as the highest DL at which <33% of patients experienced a dose-limiting toxicity (DLT) during cycle 1. The RP2D was defined as a dose below or equal to the MTD based on the evaluation of all available information (tolerability in cycles after cycle 1, PK, PD or other safety information). The RP2D was used in the expansion part of this study. Based on the safety profile assessed in the dose escalation part of this study, either the intermittent (3 out of 4 weeks) or the continuous dosing schedule (4 out of 4 weeks) could be selected.
TAS-119 was administered orally BID as tablets of 25 and 100 mg strength, on an empty stomach. Based on rodent toxicology data, 70 mg BID was determined as the starting dose after conversion from the severely toxic dose in 10% of exposed animals (STD10) (63 mg/kg BID) to one tenth of the human equivalent dose. […] Non-haematological DLTs consisted of grade ≥3 toxicity (excluding nausea/vomiting lasting <48 h and controlled by anti-emetic therapy, diarrhoea lasting <48 h and responsive to anti-diarrhoea medication or hypersensitivity reactions), whereas haematological DLT consisted of any grade 4 neutropenia lasting >7 days, any febrile neutropenia (documented absolute neutrophil count <1000/mm^3) lasting >1 h, any grade 4 thrombocytopenia or grade 3 thrombocytopenia associated with bleeding and requiring blood transfusion.
Vital sign assessment, blood cell count, serum biochemistry, coagulation parameters, urinalysis, a 12-lead electrocardiogram and, if applicable, a pregnancy test were performed at baseline. In addition, after the amendment of the protocol (Amendment 2: 31-March-2015) an ophthalmologic assessment, including visual acuity, pupil shape and pupillary reflexes, extraocular motility (eye movement) and alignment, tonometry, visual field, external examination, slit-lamp examination, and fundoscopy, was performed and repeated in all patients on days 8 and 22 during cycle 1 and on day 1 of every subsequent cycle, beginning with cycle 3. This was a consequence of ocular toxicity observed in 2 out of 26 patients until that moment.
(§1) Adverse events (AEs) at baseline and during the study were recorded and graded based on the Common Terminology Criteria for Adverse Events v4.03. Tumour measurements were done at the end of every second cycle or as per the Institutional standard of care in case of clinical indications. Response were assessed using Response Evaluation Criteria in Solid Tumours (RECIST) v1.1.[19]

[2] = Plasma and urine pharmacokinetics in patients (LC-MS/MS, non-compartmental); format: in vivo, human; settings: for mean ratio of AUC0 − last (accumulation): RP2D level DL 2.1, 200 mg BID; for Tmax: po, all dose levels; for CL renal: urine, urine 0 to 12 h, cycle 1 day 1
Experimental: Blood samples for PK analysis were collected in cycle 1, on days 1, 4 and 18 pre-dose and at 0.5, 1, 2, 3, 5, 8, and 12 h post-dose. Urine samples were collected on day 1 of cycle 1 before dosing and from 0 to 12 h after dosing. Plasma and urine concentrations of TAS-119 were determined by validated liquid chromatography–tandem mass spectrometry method. PK parameters included the peak plasma concentration (Cmax), time to reach maximum concentration in plasma (Tmax), area under the plasma concentration–time curve up to the last observable concentration (AUC0 − last) and up to infinity (AUC0 − inf), terminal phase elimination half-life (T1/2), clearance (CL/F), apparent volume of distribution (Vd/F), renal clearance (CLr) and oral clearance (CL/F).
The influence of polymorphisms of SLCO1B1 encoding the drug influx transporter OATP1B1 was examined in a blood sample obtained pre-dose on day 1 of cycle 1 for all patients during the dose escalation part. MYC amplification and β-catenin mutation were assessed in archival formalin-fixed paraffin-embedded tumour samples obtained after enrolment of the patient into the study.
Descriptive statistics were used to summarise safety data (AEs, vital signs and clinical laboratory results) overall response based on RECIST, PK and PD data. PK parameters were calculated by standard non-compartmental methods using Phoenix^TMWinNonlin® (Ver 6.3 or later, Certara L.P.). Dose proportionality of TAS-119 was evaluated with a power model and a linear regression model using logarithmic values of PK parameters such as Cmax and AUCs, as well as a one-way analysis of variance (ANOVA) using dose-normalised parameters such as Cmax, AUCs, CL/F, and apparent volume of distribution (Vd/F). Student’s t test was used to test statistical significance of the PD data and calculate the mean ratio for AUC0 − last at RP2D or MTD. Influence of SLCO1B1 genotypes on PK parameters was tested by ANOVA.

[3] = system: phosphorylated histone H3 (pHH3); test: pHH3 immunohistochemistry in paired skin biopsies and paired tumour samples; format: in vivo, human
Experimental: (§2) Blood and tissue samples were taken for PD on-target effects during mitosis of TAS-119. First, the rate of phosphorylated histone H3 (pHH3) immunohistochemistry-positive cells to total cells were measured in paired skin biopsies and paired tumour samples collected prior to first TAS-119 administration as well as after receiving TAS-119 on day 4 of cycle 1. In case of target engagement, an increase in pHH3 is expected because of cells that will stagnate in mitosis. Second, pre- and post-dose mRNA expression of genes involved in mitosis, BORA, SGOL2, KIF20A and DEPDC-1, was analysed in tissue samples by reverse transcriptase-polymerase chain reaction.

[4] = system: BORA, SGOL2, KIF20A and DEPDC-1; test: mRNA expression of mitosis genes by RT-PCR in tissue samples; format: in vivo, human; settings: 32 patients from the dose escalation part
Experimental: as §2

advanced solid tumours = test: Antitumour activity by RECIST v1.1; format: in vivo, human
Experimental: as §1
Planned enrolment in the dose escalation part included 18–30 evaluable patients, with 3–6 DLT evaluable patients in each DL. To further assess the feasibility as well as preliminarily efficacy of the RP2D, approximately 40 patients were planned to be enrolled into the expansion part (approximately 10–15 patients in each of the expansion cohorts). An additional 20 patients were pre-planned to be enrolled in an extension of the expansion part provided that either an overall response rate (ORR) of ≥20% for each specific indication or ≥10% for patients with MYC-amplified or β-catenin-mutated tumours had been observed.

AurA = system: AurA; design: method as in doi:10.1016/S0959-8049(14)70524-6; settings: pre-clinical data; cited from earlier work
AurB = system: AurB; design: method as in doi:10.1016/S0959-8049(14)70524-6; settings: pre-clinical data; cited from earlier work
AurC = system: AurC; design: method as in doi:10.1016/S0959-8049(14)70524-6; settings: pre-clinical data; cited from earlier work
TRK-A = system: TRK-A; design: method as in doi:10.1016/S0959-8049(14)70524-6; settings: pre-clinical data; cited from earlier work
TRK-B = system: TRK-B; design: method as in doi:10.1016/S0959-8049(14)70524-6; settings: pre-clinical data; cited from earlier work
TRK-C = system: TRK-C; design: method as in doi:10.1016/S0959-8049(14)70524-6; settings: pre-clinical data; cited from earlier work
RET = system: RET; design: method as in doi:10.1016/S0959-8049(14)70524-6; settings: pre-clinical data; cited from earlier work
ROS [5] = system: ROS; design: method as in doi:10.1016/S0959-8049(14)70524-6; settings: pre-clinical data; cited from earlier work
[6] = system: cancer cells with MYC oncogene amplifications and/or mutations in the Wnt/β-catenin pathway; design: method as in PMID 22222631, doi:10.15761/IMM.1000162; settings: cited from earlier work
[7] = cited from earlier work
[8] = in vivo; cited from earlier work
ROS [9] = settings: cited from earlier work

Cc1cc(Nc2nc(CC3(C(=O)O)CCN(C(=O)c4cccc(Cl)c4Cl)CC3)ccc2F)n[nH]1 [TAS-119]
maximum tolerated dose (MTD) ([1]; 4 days on/3 days off, 3 out of 4 weeks): 250 mg BID | DLT events in words ([1]; DL 2.2, 250 mg BID): one patient with grade 2 AEs of fatigue, corneal epithelial microcysts and nausea | DLT events in words ([1]; DL 3, 300 mg BID, 2 patients): SAE of corneal microcysts, grade 2 and 3 | AE with the outcome of death ([1]; escalation part, one patient at DL 2 (150 mg BID), disease progression, deemed not study treatment related): 3% | AEs with the outcome of death ([1]; expansion part): No AEs with the outcome of death | AE: Alkaline phosphatase increase ([1]; human, in vivo): 7 (17.5) n, % | AE: Amylase increase ([1]; human, in vivo): 4 (10.0) n, % | AE: Gamma-glutamyltransferase increase ([1]; human, in vivo): 7 (17.5) n, % | AE: Headache ([1]; human, in vivo): 5 (12.5) n, % | AE: Hyperglycaemia ([1]; human, in vivo): 5 (12.5) n, % | AE: Hypoalbuminaemia ([1]; human, in vivo): 5 (12.5) n, % | AE: Hypokalaemia ([1]; human, in vivo): 4 (10.0) n, % | AE: Hypotension ([1]; human, in vivo): 5 (14.7) n, % | AE: Pruritis ([1]; human, in vivo): 4 (10.0) n, % | AE: Upper respiratory tract infection ([1]; human, in vivo): 5 (12.5) n, % | AE: Urinary tract infection ([1]; human, in vivo): 6 (15.0) n, % | AE: Weight loss ([1]; human, in vivo): 4 (11.8) n, % | AEs leading to discontinuation of study drug ([1]; human, in vivo): 12% | AEs leading to discontinuation of the study drug ([1]; human, in vivo): 8% | dose dependence of ocular toxicity ([1]; human, in vivo): dose dependent and only seen at doses of 200 mg BID and above | grade ≥3 diarrhoea ([1]; human, in vivo): 5/74 | grade ≥3 increased lipase without symptoms of pancreatitis ([1]; human, in vivo): 9/74 | ocular side effects, in total ([1]; human, in vivo): 9 patients | ocular toxicity throughout the various DLs ([1]; human, in vivo): 38 % of the patients | recommended phase 2 dose (RP2D) ([1]; human, in vivo): 200 mg BID | treatment-related AEs leading to discontinuation of study drug ([1]; human, in vivo): 9% | patients with DLT during cycle 1 ([1]; in vivo): Five | patients with an ocular DLT ([1]; in vivo): four | treatment-related AEs leading to discontinuation of the study drug ([1]; in vivo): none | increase of plasma exposure with dose ([2]; 70–300 mg BID, power model, linear model and one-way ANOVA): dose-proportional | CL/F and Vd/F among SLCO1B1 polymorphism-caused phenotypes (normal/intermediate/low) ([2]; ANOVA): no statistical differences | mean ratio of AUC0 − last (accumulation) ([2]; day 4): 1.3 | mean ratio of AUC0 − last (accumulation) ([2]; day 18): 1.2 | ratio of AUC0 − last (accumulation) ([2]; continuous 200 mg BID schedule (DL 2.1), day 18): 1.1 | accumulation ratios throughout all DLs ([2]; human, in vivo): low | half-life ([2]; human, plasma, oral, blood concentrations, across dose levels): 168 to 360 min | Tmax ([2]; human, plasma, plasma, oral, read-out: Tmax range): 0.5 to 2 h | Tmax ([2]; human, plasma, plasma, oral, read-out: median Tmax): 1.2 h | CL renal ([2]; human, oral, read-out: CLr (renal clearance), median (converted)): 4.17 mL/min | CL renal ([2]; human, oral, read-out: CLr (renal clearance), range): 2.5 to 5.17 mL/min | oral clearance (CL/F), median ([2]; plasma): 9.79 L/h | oral clearance (CL/F), range ([2]; plasma): 2.72 to 13.94 L/h | mean pHH3-positive rate in skin samples after administration ([3]; 55 paired samples, pre-dose versus day 4 of cycle 1, p value <0.0001): increased | mean pHH3 rate in paired tumour samples ([3]; eight paired tumour samples): did not significantly change | mRNA expression level of mitosis genes after dosing [4]: no significant increase | patients with stable disease as best response (advanced solid tumours; DL 2 (150 mg BID)): 6 patients | patients with stable disease as best response (advanced solid tumours; DL 2.1 (200 mg BID continuous schedule)): 4 patients | patients with stable disease as best response (advanced solid tumours; DL 2.1 (200 mg BID)): 4 patients | complete or partial response (advanced solid tumours; dose escalation part): no complete response (CR) or partial response (PR) | stable disease as best response (advanced solid tumours; dose escalation part, fourteen patients): 41% | patients with unconfirmed PR (advanced solid tumours; epithelial mesothelioma, DL 2 (150 mg BID), at cycle 4): One | target ORR of 20% (or ≥10% for MYC amplification or β-catenin mutation) (advanced solid tumours; expansion part): not met | complete or partial response (advanced solid tumours; expansion part, 200 mg BID): no confirmed CR or PR | patients with stable disease (advanced solid tumours; expansion part, MYC-amp/B-cat mutation-positive tumours): 5 patients | patients with stable disease (advanced solid tumours; expansion part, SCLC): 5 patients | patients with stable disease (advanced solid tumours; expansion part, basket cohort (1 mesothelioma, 1 colorectal cancer)): 2 patients | patients with stable disease (advanced solid tumours; expansion part, breast cancer): 1 patients | IC50 (AurA): 1.04 nM | IC50 (AurB): 95 nM | IC50 (AurC): 36.5 nM | IC50 (TRK-A): 1.46 ± 0.16 nM | IC50 (TRK-B): 1.53 ± 0.12 nM | IC50 (TRK-C): 1.47 ± 0.04 nM | IC50 (RET): 25.8 ± 1.5 nM | IC50 (ROS [5]): 29.3 ± 0.8 nM | growth inhibitory effects on cancer cells with MYC amplifications and/or Wnt/β-catenin pathway mutations [6]: more potent growth inhibitory effects | microscopic findings in pre-clinical high-dose toxicity study ([7]; animals, considerable individual variation): degeneration and regeneration or hyperplasia of epithelial tissue | vomiting and liquid faeces, cyclic administration versus daily administration ([7]; cyclic administration 4 days on/3 days off, pre-clinical): less frequent vomiting and liquid faeces | microscopic findings in pre-clinical high-dose toxicity study, eyes ([7]; only in dogs): involvement of the epithelium of the eyes | severely toxic dose in 10% of exposed animals (STD10) [8]: 63 mg/kg BID

COc1cc(Nc2ncc3c(n2)-c2ccc(Cl)cc2C(c2c(F)cccc2OC)=NC3)ccc1C(=O)O [Alisertib]
mean inhibition of ROS (ROS [9]): 80%
